According to US11730712B2, “Functionalized long-chain hydrocarbon mono- and di-carboxylic acids and derivatives thereof, and their use for the prevention or treatment of disease” (ESPERVITA THERAPEUTICS, INC., priority 2021, dated 2023):

Tested on: liver fibrosis gene panel (770 genes)
Assay: Nanostring nCounter Fibrosis panel gene expression in liver of DEN-injected mice
Type: in vivo, mouse
Conditions: vs vehicle
Procedure: Nanostring Analysis. RNA was extracted from paired liver and tumor tissue from vehicle, Compound I-1 (100 mg/kg) and Compound I-32 (100 mg/kg) treated mice using an RNeasy kit (Qiagen, Calif., USA) as per manufacturer's protocol. All RNA samples passed the BioAnalyzer quality control test. The expression of target genes in liver and tumor were analyzed using the nCounter Fibrosis and Cancer Panel (NanoString Technologies, Inc., WA, USA), respectively according to manufacturer's protocol at the McMaster Genomics Facility. Technical and biological normalization against global geometric mean was performed in nSolver 4.0 software (NanoString Technologies). Technical normalization was performed in the nSolver software (version 4.0.70) by normalizing sample target raw counts to the geometric mean of positive control spike-ins. Biological normalization was performed by normalizing sample target raw counts to the geometric mean of selected housekeeping genes (Ppia, Nubp1, Nol7, Armh3, Rplp0, Cnot10, Pgk1, and Acad9). Pathway scores were calculated as the first principal component of the normalized expression values for all genes in each pathway and samples were compiled according to experimental groups to determine average pathway scores. Statistical significance was calculated between experimental groups using multiple t-tests and p-values were corrected for multiple comparisons using Benjamin-Hochberg false discovery rate.
Molecular analysis. To identify the pathways modulated in the liver and tumor tissue, nanostring analysis of fibrosis and cancer, pathways, respectively were completed in an n=8 mice treated with vehicle or Compound I-32 or Compound I-1 at 100 mg/kg.

CC(C)(CCCCc1cccc(CCCCC(C)(C)C(=O)O)c1)C(=O)O [Compound I-32, 6-[3-(5-carboxy-5-methylhexyl)-phenyl]-2,2-dimethylhexanoic acid]
Cpt1a Log2FC (NM_013495, 100 mg/kg): −0.363 | Creb3 Log2FC (NM_013497, 100 mg/kg): −0.409 | P3h3 Log2FC (NM_013534, 100 mg/kg): −0.96 | Rora Log2FC (NM_013646, 100 mg/kg): 0.258 | Slc25a10 Log2FC (NM_013770, 100 mg/kg): 0.324 | H2-M3 Log2FC (NM_013819, 100 mg/kg): −0.633 | Xbp1 Log2FC (NM_013842, 100 mg/kg): −0.29 | Col5a1 Log2FC (NM_015734, 100 mg/kg): −0.601 | Ero1l Log2FC (NM_015774, 100 mg/kg): 0.269 | Cfhr1 Log2FC (NM_015780, 100 mg/kg): −0.283 | Isg15 Log2FC (NM_015783, 100 mg/kg): −0.673 | C6 Log2FC (NM_016704, 100 mg/kg): −1.04 | Irf3 Log2FC (NM_016849, 100 mg/kg): −0.206 | Actr1a Log2FC (NM_016860, 100 mg/kg): −0.192 | Ywhag Log2FC (NM_018871, 100 mg/kg): 0.265 | Fbp1 Log2FC (NM_019395, 100 mg/kg): −0.981 | Ppp2ca Log2FC (NM_019411, 100 mg/kg): −0.123 | Atf7ip Log2FC (NM_019426, 100 mg/kg): −0.289 | Ndufa1 Log2FC (NM_019443, 100 mg/kg): 0.156 | Htra2 Log2FC (NM_019752, 100 mg/kg): −0.286 | Cpb2 Log2FC (NM_019775, 100 mg/kg): −0.467 | Uba52 Log2FC (NM_019883, 100 mg/kg): 0.433 | Ube2d2a Log2FC (NM_019912, 100 mg/kg): −0.231 | Aldh9a1 Log2FC (NM_019993, 100 mg/kg): 0.467 | Angptl4 Log2FC (NM_020581, 100 mg/kg): 0.413 | Isg20 Log2FC (NM_020583, 100 mg/kg): −0.491 | Abcb11 Log2FC (NM_021022, 100 mg/kg): −0.503 | Rps6kb2 Log2FC (NM_021485, 100 mg/kg): −0.398 | Cxcl12 Log2FC (NM_021704, 100 mg/kg): −0.535 | Apoc3 Log2FC (NM_023114, 100 mg/kg): −0.391 | Cxcl16 Log2FC (NM_023158, 100 mg/kg): −0.445 | Ern1 Log2FC (NM_023913, 100 mg/kg): −0.451 | Sec61b Log2FC (NM_024171, 100 mg/kg): −0.37 | Hsbp1 Log2FC (NM_024219, 100 mg/kg): −0.155 | Cyp27a1 Log2FC (NM_024264, 100 mg/kg): −0.71 | Fabp4 Log2FC (NM_024406, 100 mg/kg): 0.887 | Ndufb5 Log2FC (NM_025316, 100 mg/kg): 0.36 | Ssr2 Log2FC (NM_025448, 100 mg/kg): −0.208 | Psenen Log2FC (NM_025498, 100 mg/kg): −0.154 | Ndufc1 Log2FC (NM_025523, 100 mg/kg): 0.363 | Cox6b1 Log2FC (NM_025628, 100 mg/kg): 0.405 | Uqcrh Log2FC (NM_025641, 100 mg/kg): 0.28 | Uqcrfs1 Log2FC (NM_025710, 100 mg/kg): 0.188 | Map1lc3a Log2FC (NM_025735, 100 mg/kg): 0.744 | Ndufb8 Log2FC (NM_026061, 100 mg/kg): 0.279 | Erp29 Log2FC (NM_026129, 100 mg/kg): −0.277 | Uqcrb Log2FC (NM_026219, 100 mg/kg): 0.377 | Sugt1 Log2FC (NM_026474, 100 mg/kg): 0.15 | Atg101 Log2FC (NM_026566, 100 mg/kg): −0.483 | Ndufs3 Log2FC (NM_026688, 100 mg/kg): 0.148 | Ifi35 Log2FC (NM_027320, 100 mg/kg): −0.447 | Pgm2 Log2FC (NM_028132, 100 mg/kg): 0.339 | Phykpl Log2FC (NM_028398, 100 mg/kg): −0.288 | Pik3cb Log2FC (NM_029094, 100 mg/kg): −0.412 | Hcar2 Log2FC (NM_030701, 100 mg/kg): 1.41 | Cpn1 Log2FC (NM_030703, 100 mg/kg): 0.351 | Slc2a2 Log2FC (NM_031197, 100 mg/kg): −0.47 | Lamtor2 Log2FC (NM_031248, 100 mg/kg): 0.189 | Dock2 Log2FC (NM_033374, 100 mg/kg): −0.474 | Ube2n Log2FC (NM_080560, 100 mg/kg): −0.194 | Elovl6 Log2FC (NM_130450, 100 mg/kg): 1.22 | Acaca Log2FC (NM_133360, 100 mg/kg): 0.893 | Fgg Log2FC (NM_133862, 100 mg/kg): −0.387 | Acacb Log2FC (NM_133904, 100 mg/kg): 0.681 | Il1rap Log2FC (NM_134103, 100 mg/kg): −0.868 | Ptpa Log2FC (NM_138748, 100 mg/kg): 0.222 | Mylk Log2FC (NM_139300, 100 mg/kg): −0.532 | Fegr4 Log2FC (NM_144559, 100 mg/kg): −0.638 | Aldob Log2FC (NM_144903, 100 mg/kg): −0.6 | C1s1 Log2FC (NM_144938, 100 mg/kg): −0.755 | Txndc5 Log2FC (NM_145367, 100 mg/kg): −0.321 | Ldlrap1 Log2FC (NM_145554, 100 mg/kg): −0.189 | Jak1 Log2FC (NM_146145, 100 mg/kg): −0.166 | C8a Log2FC (NM_146148, 100 mg/kg): −1.37 | Pkhdi Log2FC (NM_153179, 100 mg/kg): −1.12 | Nckap1l Log2FC (NM_153505, 100 mg/kg): −0.653 | Mbtps2 Log2FC (NM_172307, 100 mg/kg): 0.306 | Cyp4a12a Log2FC (NM_177406, 100 mg/kg): 1.42 | Acaa2 Log2FC (NM_177470, 100 mg/kg): 0.314 | Jmjd4 Log2FC (NM_178659, 100 mg/kg): −0.516 | Nceh1 Log2FC (NM_178772, 100 mg/kg): 0.444 | Hadha Log2FC (NM_178878, 100 mg/kg): 0.903 | Mfap3 Log2FC (NM_180599, 100 mg/kg): −0.362 | Bst2 Log2FC (NM_198095, 100 mg/kg): 0.494 | Acsl4 Log2FC (NM_207625, 100 mg/kg): 0.737 | Cflar Log2FC (NM_207653, 100 mg/kg): −0.25 | Egfr Log2FC (NM_207655, 100 mg/kg): −0.93 | Stat3 Log2FC (NM_213659, 100 mg/kg): −0.686 | H2-K1 Log2FC (NM_001001892, 100 mg/kg): −0.168 | Kdm2a Log2FC (NM_001001984, 100 mg/kg): −0.255 | Cfhr2 Log2FC (NM_001025575, 100 mg/kg): −0.596 | Ndufs5 Log2FC (NM_001030274, 100 mg/kg): 0.381 | Itga1 Log2FC (NM_001033228, 100 mg/kg): −0.312 | Dock1 Log2FC (NM_001033420, 100 mg/kg): −0.347 | Xaf1 Log2FC (NM_001037713, 100 mg/kg): −0.701 | Banf1 Log2FC (NM_001038231, 100 mg/kg): 0.339 | Smurf Log2FC (NM_001038627, 100 mg/kg): −0.969 | Seh1l Log2FC (NM_001039088, 100 mg/kg): 0.216 | Nrp2 Log2FC (NM_001077403, 100 mg/kg): 0.619 | Ptafr Log2FC (NM_001081211, 100 mg/kg): −0.408 | Brpf3 Log2FC (NM_001081315, 100 mg/kg): 0.3 | Aqp8 Log2FC (NM_001109045, 100 mg/kg): −0.632 | Igf1 Log2FC (NM_001111274, 100 mg/kg): −0.588 | Itga9 Log2FC (NM_001113514, 100 mg/kg): −0.212 | Il1r1 Log2FC (NM_001123382, 100 mg/kg): −1.16 | Aldh7a1 Log2FC (NM_001127338, 100 mg/kg): −0.344 | Rnf152 Log2FC (NM_001160368, 100 mg/kg): −0.687 | Cyfip1 Log2FC (NM_001164661, 100 mg/kg): −0.229 | Slc25a13 Log2FC (NM_001177572, 100 mg/kg): −0.179 | Syk Log2FC (NM_001198977, 100 mg/kg): −0.772 | Cd84 Log2FC (NM_001252472, 100 mg/kg): −0.6 | Apoc2 Log2FC (NM_001277944, 100 mg/kg): −0.94 | Ncf1 Log2FC (NM_001286037, 100 mg/kg): −0.635 | Cd68 Log2FC (NM_001291058, 100 mg/kg): −0.732 | Itga5 Log2FC (NM_001314041, 100 mg/kg): −0.402 | Col6a3 Log2FC (XM_897036, 100 mg/kg): −0.679
